Measurements reported in patent publication US12187728B2 (Raze Therapeutics, Inc., priority 2015, dated 2025).

Molecular target: T1, Human MTHFD2 (Homo sapiens, UniProt P13995)
T1 construct: residues 36-350 in Uniport ID P13995; His6 (N); made in house; host or cells: E. coli
T1 sequence (P13995 36-350): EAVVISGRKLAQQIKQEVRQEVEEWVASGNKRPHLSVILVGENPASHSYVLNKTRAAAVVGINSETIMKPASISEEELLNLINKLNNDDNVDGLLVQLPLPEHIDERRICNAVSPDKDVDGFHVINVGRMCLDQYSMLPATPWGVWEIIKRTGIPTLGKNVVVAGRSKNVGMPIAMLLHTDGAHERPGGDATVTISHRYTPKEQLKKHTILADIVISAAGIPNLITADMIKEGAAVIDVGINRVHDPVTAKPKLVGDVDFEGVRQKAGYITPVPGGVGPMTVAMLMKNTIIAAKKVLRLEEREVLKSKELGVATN
Assay: MTHFD2 Activity Assay (dehydrogenase activity, diaphorase/resazurin coupled fluorescence)
Assay type: biochemical
Settings: inhibitory activity (IC50 and/or binding constant); 0.2 nM MTHFD2, 11 concentrations
Outline: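 His6-tagged MTHFD2 (res. 36-350), E. coli-expressed, at 0.2 nM preincubated with compound 15 min in Hepes pH 8.0/MgCl2/KH2PO4 buffer; 70 μM CH2-THF, 1 mM NAD+ added with resazurin/diaphorase, 30 min, EDTA stop. Resorufin fluorescence (ex 525/em 598); IC50 from 11-point 4-parameter fit.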

| SMILES | IC50 [µM] |
| --- | --- |
| Cc1ccc(Nc2nc3c(c(=O)n(Cc4cc5c(Cl)cccc5[nH]4)c(=O)n3C)n2C)nc1CCC(=O)O [Example 377, 3-(6-(1-((4-chloro-1H-indol-2-yl)methyl)-3,7-dimethyl-2,6-dioxo-2,3,6,7-tetrahydro-1H-purin-8-ylamino)-3-methylpyridin-2-yl)propanoic acid] | 0.01 to 1 |
| Cn1c(Nc2ccnc(C3CC(O)C3)c2)nc2c1c(=O)n(Cc1ccc(Cl)c(Cl)c1)c(=O)n2C (centres unmarked) [Example 344, 1-(3,4-diclorobenzyl)-8-(2-(3-hydroxylcyclobutyl)pyridine-4-ylamino)-3,7-dimethyl-1-H-purine-2,6(3H,7H)-dione] | 1 to 5 |
| Cn1c(Nc2ccc(C(N)=O)cc2)nc2c1c(=O)n(Cc1cc3c(Cl)cccc3[nH]1)c(=O)n2C [Example 420, 4-[[1-[(4-chloro-1H-indol-2-yl)methyl]-3,7-dimethyl-2,6-dioxo-purin-8-yl]amino]benzamide] | 0.01 to 1 |
| C/C(=N/O)c1nc2c(c(=O)n(Cc3cc4c(Cl)cccc4[nH]3)c(=O)n2C)n1C [Example 481, (Z)-1-((4-chloro-1H-indol-2-yl)methyl)-8-(1-(hydroxyimino)ethyl)-3,7-dimethyl-1H-purine-2,6(3H,7H)-dione or (E)-1-((4-chloro-1H-indol-2-yl)methyl)-8-(1-(hydroxyimino)ethyl)-3,7-dimethyl-1H-purine-2,6(3H,7H)-dione] | 0.01 to 1 |
| C[C@@H](N)c1nc2c(c(=O)n(Cc3cc4c(Cl)cccc4[nH]3)c(=O)n2C)n1C (single isomer, unassigned) [Example 436, (R)-8-(1-aminoethyl)-14(4-chloro-1H-indol-2-yl)methyl)-3,7-dimethyl-1H-purine-2,6(3H,7H)-dione or (S)-8-(1-aminoethyl)-1-((4-chloro-1H-indol-2-yl)methyl)-3,7-dimethyl-1H-purine-2,6(3H,7H)-dione] | 0.01 to 1 |
| Cn1c(N[C@@H]2CCC[C@@H](O)C2)nc2c1c(=O)n(Cc1ccc(Cl)c(Cl)c1)c(=O)n2C (racemic) [Example 172, (±)-1-(3,4-dichlorobenzyl)-8-((trans)-3-hydroxycyclohexylamino)-3,7-dimethyl-1H-purine-2,6(3H,7H)-dione] | 0.01 to 1 |
| Cn1c(=O)n(Cc2ccc(Cl)c(Cl)c2)c(=O)c2c1nc(NC1CCCC(C(=O)O)C1)n2CC(=O)O (centres unmarked) [Example 307, 3-(7-(carboxymethyl)-1-(3,4-dichlorobenzyl)-3-methyl-2,6-dioxo-2,3,6,7-tetrahydro-1H-purin-8-ylamino)cyclohexanecarboxylic acid] | 1 to 5 |
| Cn1c(NC2CCCC(C(=O)O)C2)nc2c1c(=O)n(Cc1ccc(C(F)(F)F)cc1)c(=O)n2C (racemic) [Example 115, (±)-3-(3,7-dimethyl-2,6-dioxo-1-(4-(trifluoromethyl)benzyl)-2,3,6,7-tetrahydro-1H-purin-8-ylamino)cyclohexanecarboxylic acid] | 1 to 5 |
| Cn1c(C2CCCN2)nc2c1c(=O)n(Cc1cc3c(Cl)cccc3[nH]1)c(=O)n2C (centres unmarked) [Example 424, 1-[(4-chloro-1H-indol-2-yl)methyl]-3,7-dimethyl-8-pyrrolidin-2-yl-purine-2,6-dione] | 0.01 to 1 |
| Cn1c(NC2CCNC(=O)C2)nc2c1c(=O)n(Cc1ccc(Cl)c(Cl)c1)c(=O)n2C (racemic) [Example 211, (±)-1-(3,4-dichlorobenzyl)-3,7-dimethyl-8-(2-oxopiperidin-4-ylamino)-1H-purine-2,6(3H,7H)-dione] | 0.01 to 1 |
| Cn1c(N[C@H]2C[C@H](CO)C2)nc2c1c(=O)n(Cc1cc3ccccc3[nH]1)c(=O)n2C [Example 295, 1-((1H-indol-2-yl)methyl)-8-((1R,3R)-3-(hydroxymethyl)cyclobutylamino)-3,7-dimethyl-1H-purine-2,6(3H,7H)-dione] | 0.01 to 1 |
| COc1nc2c(c(=O)n(Cc3cc4cccc(Cl)c4n3C)c(=O)n2C)n1C [Example 433, 1-[(7-chloro-1-methyl-indol-2-yl)methyl]-8-methoxy-3,7-dimethyl-purine-2,6-dione] | 0.01 to 1 |

The next lines start with the values.

| IC50 [µM] | SMILES |
| --- | --- |
| 0.01 to 1 | Cn1c(N[C@H]2CCC[C@H](O)C2)nc2c1c(=O)n(Cc1ccc(Cl)c(Cl)c1)c(=O)n2C (single isomer, unassigned) [Example 80, 1-(3,4-dichlorobenzyl)-8-((1S,3S)-3-hydroxycyclohexylamino)-3,7-dimethyl-1H-purine-2,6(3H,7H)-dione or 1-(3,4-dichlorobenzyl)-8-((1R,3R)-3-hydroxycyclohexylamino)-3,7-dimethyl-1H-purine-2,6(3H,7H)-dione] |
| 0.01 to 1 | Cn1c(=O)n(Cc2ccc(Cl)c(Cl)c2)c(=O)c2c1nc(NC1CCCC(C(=O)O)C1)n2CCO (centres unmarked) [Example 316, 3-(1-(3,4-dichlorobenzyl)-7-(2-hydroxyethyl)-3-methyl-2,6-dioxo-2,3,6,7-tetrahydro-1H-purin-8-ylamino)cyclohexanecarboxylic acid] |
| 0.01 to 1 | Cn1c(C(N)c2cccnc2)nc2c1c(=O)n(Cc1cc3c(Cl)cccc3[nH]1)c(=O)n2C (centres unmarked) [Example 445, 8-[amino(3-pyridyl)methyl]-1-[(4-chloro-1H-indol-2-yl)methyl]-3,7-dimethyl-purine-2,6-dione] |
| 0.01 to 1 | Cn1c(N[C@H]2CCCOC2)nc2c1c(=O)n(Cc1ccc(Cl)c(Cl)c1)c(=O)n2C [Example 46, 1-[(3,4-dichlorophenyl)methyl]-3,7-dimethyl-8-{[(3S)-oxan-3-yl]amino}-2,3,6,7-tetrahydro-1H-purine-2,6-dione] |
| > 10 | C[C@H](O)CNc1nc2c(c(=O)n(Cc3ccc(F)c(F)c3)c(=O)n2C)n1C [Example 30, 1-[(3,4-difluorophenyl)methyl]-8-{[(2S)-2-hydroxypropyl]amino}-3,7-dimethyl-2,3,6,7-tetrahydro-1H-purine-2,6-dione] |
| 0.01 to 1 | Cn1c(Nc2cccc([C@@H]3C[C@H]3C(N)=O)n2)nc2c1c(=O)n(Cc1cc3c(Cl)cccc3[nH]1)c(=O)n2C (racemic) [Example 364, (±)-trans-2-(6-((1-((4-chloro-1H-indol-2-yl)methyl)-3,7-dimethyl-2,6-dioxo-2,3,6,7-tetrahydro-1H-purin-8-yl)amino)pyridin-2-yl)cyclopropanecarboxamide] |
| 0.01 to 1 | Cn1c(Nc2ccncc2)nc2c1c(=O)n(Cc1cc3c(F)cccc3[nH]1)c(=O)n2C [Example 310, 1-((4-fluoro-1H-indol-2-yl)methyl)-3,7-dimethyl-8-(pyridin-4-ylamino)-1H-purine-2,6(3H,7H)-dione] |
| 0.01 to 1 | Cn1c(Nc2ccnc([C@H]3C[C@@H]3C(=O)O)c2)nc2c1c(=O)n(Cc1cc3c(Cl)cccc3[nH]1)c(=O)n2C (single isomer, unassigned) [Example 363, (1S,2S)-2-(4-((1-((4-chloro-1H-indol-2-yl)methyl)-3,7-dimethyl-2,6-dioxo-2,3,6,7-tetrahydro-1H-purin-8-yl)amino)pyridin-2-yl)cyclopropanecarboxylic acid or (1R,2R)-2-(4-((1-((4-chloro-1H-indol-2-yl)methyl)-3,7-dimethyl-2,6-dioxo-2,3,6,7-tetrahydro-1H-purin-8-yl)amino)pyridin-2-yl)cyclopropanecarboxylic acid] |
